Reference: article PMC5790795, “N-Acetylmuramic Acid (MurNAc) Auxotrophy of the Oral Pathogen Tannerella forsythia: Characterization of a MurNAc Kinase and Analysis of Its Role in Cell Wall Metabolism” (Frontiers in Microbiology, 2018)

Molecular target: T1, Tf_MurK (rTf_MurK; Tanf_08380) (Tannerella forsythia, UniProt G8UQH1)
T1 construct: gene BFO_0034
T1 sequence (G8UQH1 19-302): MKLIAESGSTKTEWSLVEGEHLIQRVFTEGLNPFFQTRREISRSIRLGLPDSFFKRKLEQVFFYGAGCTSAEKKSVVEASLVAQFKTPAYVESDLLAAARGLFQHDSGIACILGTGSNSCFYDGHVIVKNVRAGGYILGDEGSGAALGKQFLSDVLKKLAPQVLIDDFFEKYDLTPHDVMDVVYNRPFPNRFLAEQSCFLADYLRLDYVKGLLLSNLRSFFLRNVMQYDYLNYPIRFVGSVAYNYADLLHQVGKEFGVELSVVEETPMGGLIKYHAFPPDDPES
Test: coupled pyruvate kinase / lactate dehydrogenase assay, NADH at […] nm
Format: biochemical
Settings: ATP, 10 mM MgCl2, 50 mM phosphate pH 7.0, 20 °C; substrate inhibition constant

In the case of `CC(=O)N[C@H]1C(O)O[C@H](CO)[C@@H](O)[C@@H]1O[C@H](C)C(=O)O` (stereo partly shown) [MurNAc], the “Ki(S)” value is reported as 4.2 mM.
